The values that follow come from patent US7446199B2, “Compositions useful as inhibitors of protein kinases” (Vertex Pharmaceuticals Incorporated, priority 2003, dated 2008).

Test [1] has as its target SYK (Homo sapiens, UniProt P43405). Kind of test: SYK enzyme assay, coupled enzyme assay. Type of test: biochemical. The conditions noted are these: 200 μM ATP, 4 μM poly Gly-Tyr peptide, 30° C. Here is the method:
Compounds were screened for their ability to inhibit SYK using a standard coupled enzyme assay (Fox et al., Protein Sci. 1998, 7, 2249). Reactions were carried out in 100 mM HEPES (pH 7.5), 10 mM MgCl2, 25 mM NaCl, 1 mM DTT and 1.5% DMSO. Final substrate concentrations in the assay were 200 μM ATP (Sigma chemical Co.) and 4 μM poly Gly-Tyr peptide (Sigma Chemical Co.). Assays were carried out at 30° C. and 200 nM SYK. Final concentrations of the components of the coupled enzyme system were 2.5 mM phosphoenolpyruvate, 300 μM NADH, 30 μg/ml pyruvate kinase and 10 μg/ml lactate dehydrogenase.
An assay stock buffer solution was prepared containing all of the reagents listed above, with the exception of SYK, DTT, and the test compound of interest of the present invention. 56 μl of the test reaction was placed in a 96 well plate followed by the addition of 1 μl of 2 mM DMSO stock containing the test compound of the present invnetion (final compound concentration 30 μM). The plate was pre-incubated for ˜10 minutes at 30° C. and the reaction initiated by the addition of 10 μl of enzyme (final concentration 25 nM). Rates of reaction were obtained using a BioRad Ultramark plate reader (Hercules, Calif.) over a 5 minute read time at 30° C., and Ki values for the compounds of the present invention were determined according to standard methods.

Test [2] concerns the target T1, TAK1A-TAB fusion protein (Homo sapiens, UniProt O43318).
T1 construct: using 20 nM TAK1A-TAB fusion protein
T1 sequence (O43318 with tags, fused parts or gaps isoform O43318-2 limits assumed): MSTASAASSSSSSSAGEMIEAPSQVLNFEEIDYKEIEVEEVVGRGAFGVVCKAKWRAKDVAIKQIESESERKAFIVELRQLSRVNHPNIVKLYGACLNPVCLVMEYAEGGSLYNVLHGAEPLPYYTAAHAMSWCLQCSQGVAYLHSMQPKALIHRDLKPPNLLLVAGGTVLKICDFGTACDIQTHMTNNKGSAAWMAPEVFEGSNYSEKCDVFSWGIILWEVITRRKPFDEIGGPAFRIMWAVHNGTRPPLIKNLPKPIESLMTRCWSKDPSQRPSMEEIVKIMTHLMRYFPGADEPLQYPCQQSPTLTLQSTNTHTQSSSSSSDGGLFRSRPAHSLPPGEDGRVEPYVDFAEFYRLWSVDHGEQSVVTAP
In words: TAK-1 inhibition assay, radiometric filter binding assay. The conditions noted are these: 50 μM ATP, 12 μM bovine myelin basic protein, 20 nM TAK1A-TAB fusion protein. The test is classed as biochemical. The procedure: Compounds were screened for their ability to inhibit TAK1A kinase activity using a radiometric filter binding assay. Reactions were carried out in a solution containing Buffer A (100 mM HEPES (pH 7.5), 10 mM MgCl2), 25 mM NaCl, 2 mM DTT, and 1.5% DMSO. Final substrate concentrations in the assay were 50 μM ATP (a mixture of unlabeled ATP (Sigma Chemicals, St Louis, Mo.) and ^33P-labeled ATP (PerkinElmer Life Sciences, Boston, Mass.) for a final specific activity of 50 Ci/mol), and 12 μM bovine myelin basic protein (MBP, Vertex Pharmaceuticals, Cambridge, Mass.). Reactions were carried out at ambient temperature (˜20° C.) using 20 nM TAK1A-TAB fusion protein. Under these conditions the extent of reaction is linear with time for a period of 2 hours.
A test compound of the present invention (1 μL in DMSO) was combined with ATP and Buffer A in a final volume of 47 μL in a 96 well plate. Typically, a 6 point titration was conducted by preparing serial dilutions (from 10 mM compound stocks) with DMSO of the test compounds of the present invention in daughter plates, for final concentrations spanning 0.046 μM to 3.73 μM. The reaction was initiated by the addition of 20 μl of an enzyme stock solution consisting of TAK1A-TAB fusion (described by Sugita, T. et al. in Biochem. Biophys. Res. Comm. 2002, 297, 1277-1281), MBP, Buffer A, NaCl, and DTT. The reaction was allowed to proceed for two hours at ambient temperature, then quenched with an equal volume of 10 mM unlabeled ATP in 10% trichloroacetic acid. A 110 μL aliquot of the quenched reaction was transferred to a Multiscreen PH filter plate (Millipore, Billerica, Mass.) and allowed to incubate at ambient temperature overnight (typically 16-20 hours). Following incubation the filter plates were washed with 3×150 μL aliquots of 5% trichloroacetic acid using a modified Biotek Elx405 plate washer. A 70 μL aliquot of Microscint 20 scintillation fluid (PerkinElmer) was added to each well, and the plate was then sealed and read on a TopCount NXT microplate scintillation counter (PerkinElmer). The Ki values were determined from the rate data as a function of inhibitor concentration.

In the case of `CN(C)Cc1ccnc(-c2cnc3[nH]cc(-c4oncc4-c4cccc(F)c4F)c3c2)c1` [Compound 82, (2-{3-[4-(2,3-Difluoro-phenyl)-isoxazol-5-yl]-1H-pyrrolo[2,3-b]pyridin-5-yl}-pyridin-4-ylmethyl)-dimethyl-amine], the Ki in test [1] fell in the range of 1000 to 12500 nM. On to `CN(C)c1ccc(-c2cnc3[nH]cc(-c4nncn4-c4cccc(F)c4F)c3c2)cc1` [Compound 106, (4-{3-[4-(2,3-Difluoro-phenyl)-4H-[1,2,4]triazol-3-yl]-1H-pyrrolo[2,3-b]pyridin-5-yl}-phenyl)-dimethyl-amine], for which the Ki in test [1] is 1000 to 12500 nM; in test [2], 200 to 1000 nM.

Regarding `Fc1cccc(-c2cnoc2-c2c[nH]c3ncc(-c4ccc(N5CCNCC5)cc4)cc23)c1F` [Compound 68, 3-[4-(2,3-Difluoro-phenyl)-isoxazol-5-yl]-5-(4-piperazin-1-yl-phenyl)-1H-pyrrolo[2,3-b]pyridine], the Ki in test [1] was 200 to 1000 nM; in test [2] it was less than 200 nM. On to `CN(C)c1ccc(-c2cnc3[nH]cc(-c4oncc4-c4cccc(F)c4F)c3c2)cc1` [Compound 88, (4-{3-[4-(2,3-Difluoro-phenyl)-isoxazol-5-yl]-1H-pyrrolo[2,3-b]pyridin-5-yl}-phenyl)-dimethyl-amine], for which the Ki in test [1] was 1000 to 12500 nM. Regarding `Fc1cccc(-c2cnoc2-c2c[nH]c3ncc(-c4cnc5[nH]ccc5c4)cc23)c1F` [Compound 77, 3-[4-(2,3-Difluoro-phenyl)-isoxazol-5-yl]-1H,1′H-[5,5′]bi[pyrrolo[2,3-b]pyridinyl]], the Ki in test [1] and in test [2] was 200 to 1000 nM in each case. For the molecule `CN1CCN(c2ccc(-c3cnc4[nH]cc(-c5oncc5-c5cccc(F)c5F)c4c3)cc2)CC1` [Compound 70, 3-[4-(2,3-Difluoro-phenyl)-isoxazol-5-yl]-5-[4-(4-methyl-piperazin-1-yl)-phenyl]-1H-pyrrolo[2,3-b]pyridine methanesulfonate], the values for the Ki in test [1] and in test [2] were 200 to 1000 nM and less than 200 nM, respectively.

As to `Clc1cccc(-c2cnoc2-c2c[nH]c3ncc(-c4cccnc4)cc23)c1Cl` [Compound 99, 3-[4-(2,3-Dichloro-phenyl)-isoxazol-5-yl]-5-pyridin-3-yl-1H-pyrrolo[2,3-b]pyridine], the Ki in test [1] and in test [2] was 200 to 1000 nM in each case. The molecule `Fc1cccc(-c2cnoc2-c2c[nH]c3ncccc23)c1F` [Compound 1, 3-[4-(2,3-Difluoro-phenyl)-isoxazol-5-yl]-1H-pyrrolo[2,3-b]pyridine] had a Ki in test [1] of 200 to 1000 nM.

For the molecule `COc1cnc2[nH]cc(-c3oncc3-c3cccc(F)c3F)c2c1` [Compound 38, 3-[4-(2,3-Difluoro-phenyl)-isoxazol-5-yl]-5-methoxy-1H-pyrrolo[2,3-b]pyridine], in test [1], the inhibition constant Ki is 1000 to 12500 nM.

As for `CS(=O)(=O)Nc1ccc(-c2cnc3[nH]cc(-c4oncc4-c4cccc(F)c4F)c3c2)cc1` [Compound 98, N-(4-{3-[4-(2,3-Difluoro-phenyl)-isoxazol-5-yl]-1H-pyrrolo[2,3-b]pyridin-5-yl}-phenyl)-methane sulfonamide], the Ki lay in the range of 1000 to 12500 nM in test [1] and 200 to 1000 nM in test [2]. `Fc1cccc(-c2cnoc2-c2c[nH]c3ncc(-c4ccccn4)cc23)c1F` [Compound 73, 3-(4-(2,3-Difluoro-phenyl)-isoxazol-5-yl)-5-pyridin-2-yl-1H-pyrrolo[2,3-b]pyridine] had a Ki in test [1] of 1000 to 12500 nM. On the same count and under the same terms, for `CN(C)Cc1ccc(-c2cnc3[nH]cc(-c4oncc4-c4cccc(F)c4F)c3c2)cc1` [Compound 91, (4-{3-[4-(2,3-Difluoro-phenyl)-isoxazol-5-yl]-1H-pyrrolo[2,3-b]pyridin-5-yl}-benzyl)-dimethyl-amine] the value was 1000 to 12500 nM; for `Fc1cccc(-c2cnoc2-c2c[nH]c3ncc(Br)cc23)c1F` [Compound 37, 5-Bromo-3-[4-(2,3-difluoro-phenyl)-isoxazol-5-yl]-1H-pyrrolo[2,3-b]pyridine], 1000 to 12500 nM.

`Fc1cccc(-c2cnoc2-c2c[nH]c3ncc(-c4c[nH]cn4)cc23)c1F` [Compound 76, 3-[4-(2,3-Difluoro-phenyl)-isoxazol-5-yl]-5-(3H-imidazol-4-yl)-1H-pyrrolo[2,3-b]pyridine] registered a Ki in test [1] of 1000 to 12500 nM. In turn, `Fc1c(Cl)cccc1-c1cnoc1-c1c[nH]c2ncccc12` [Compound 42, 3-[4-(3-Chloro-2-fluoro-phenyl)-isoxazol-5-yl]-1H-pyrrolo[2,3-b]pyridine] showed a Ki in test [1] of 1000 to 12500 nM. Still for that read-out and setting: for `Oc1cnc2[nH]cc(-c3oncc3-c3cccc(F)c3F)c2c1` [Compound 43, 3-[4-(2,3-Difluoro-phenyl)-isoxazol-5-yl]-1H-pyrrolo[2,3-b]pyridin-5-ol] the value was 200 to 1000 nM. As for `CN1CCN(c2ccc(-c3cnc4[nH]cc(-c5oncc5-c5cccc(F)c5F)c4c3)cn2)CC1` [Compound 71, 3-[4-(2,3-Difluoro-phenyl)-isoxazol-5-yl]-5-[6-(4-methyl-piperazin-1-yl)-pyridin-3-yl]-1H-pyrrolo[2,3-b]pyridine], the inhibition constant Ki in test [1] was 1000 to 12500 nM; in test [2] it was less than 200 nM. Turning to `CN(C)Cc1ccc(-c2cnc3[nH]cc(-c4oncc4-c4cccc(F)c4F)c3c2)nc1` [Compound 84, (6-{3-[4-(2,3-Difluoro-phenyl)-isoxazol-5-yl]-1H-pyrrolo[2,3-b]pyridin-5-yl}-pyridin-3-ylmethyl)-dimethyl-amine], the results for the Ki in test [1] and in test [2] were 1000 to 12500 nM and 200 to 1000 nM, respectively.

For the molecule `Nc1cccc(-c2cnc3[nH]cc(-c4oncc4-c4cccc(F)c4F)c3c2)c1` [Compound 86, 3-{3-[4-(2,3-Difluoro-phenyl)-isoxazol-5-yl]-1H-pyrrolo [2,3-b]pyridin-5-yl}-phenylamine], in test [1], the Ki is 200 to 1000 nM. Still for that read-out and setting: the figure for `Nc1ccc(-c2cnc3[nH]cc(-c4oncc4-c4cccc(F)c4F)c3c2)cc1` [Compound 90, 4-{3-[4-(2,3-Difluoro-phenyl)-isoxazol-5-yl]-1H-pyrrolo [2,3-b]pyridin-5-yl}-phenylamine] is 200 to 1000 nM. With `Fc1cccc(-c2cnoc2-c2c[nH]c3ncc(-c4ccc(CN5CCCC5)cc4)cc23)c1F` [Compound 93, 3-[4-(2,3-Difluoro-phenyl)-isoxazol-5-yl]-5-(4-pyrrolidin-1-ylmethyl-phenyl)-1H-pyrrolo[2,3-b]pyridine], the Ki in test [1] lay within 1000 to 12500 nM. `CC(=O)Nc1cccc(-c2cnc3[nH]cc(-c4oncc4-c4cccc(F)c4F)c3c2)c1` [Compound 65, N-(3-{3-[4-(2,3-Difluoro-phenyl)-isoxazol-5-yl]-1H-pyrrolo[2,3-b]pyridin-5-yl}-phenyl)-acetamide] showed a Ki in test [1] of 1000 to 12500 nM. On the same count and under the same terms, for `O=c1ccc(-c2cnc3[nH]cc(-c4oncc4-c4cccc(F)c4F)c3c2)c[nH]1` [Compound 67, 5-{3-[4-(2,3-Difluoro-phenyl)-isoxazol-5-yl]-1H-pyrrolo [2,3-b]pyridin-5-yl}-1H-pyridin-2-one] the value was 200 to 1000 nM. `Cc1noc(-c2c[nH]c3ncccc23)c1-c1cccc(F)c1F` [Compound 134, 3-[4-(2,3-Difluoro-phenyl)-3-methyl-isoxazol-5-yl]-1H-pyrrolo[2,3-b]pyridine] came in with a Ki in test [1] of 1000 to 12500 nM.

A word on the Ki: it is the dissociation constant of the complex between target and ligand, obtained from inhibition or displacement.
